{"source": "patent US20080194494A1", "about": "“4-Biarylyl-1-Phenylazetidin-2-One Glucuronide Derivatives for Hypercholesterolemia” (MICROBIA, INC., priority 2005, published 2008)", "origin": "cited, not measured here", "key": {"[1]": {"details": "in humans"}, "[2]": {"details": "in vivo"}}, "data": [{"smiles": "O=C1[C@H](CC[C@H](O)c2ccc(F)cc2)[C@@H](c2ccc(O)cc2)N1c1ccc(F)cc1", "note": "[ezetimibe, (3R,4S)-1-(4-fluorophenyl)-3-[(3S)-3-(4-fluorophenyl)-3-hydroxypropyl]-4-(4-hydroxyphenyl)azetidin-2-one]", "values": [{"measurement": "effect on fat-soluble vitamin absorption", "setting": "[1]", "value": "does not appear to affect"}, {"measurement": "inhibition of the absorption of taurocholic acid", "setting": "[2]", "value": "does not inhibit"}]}]}
